Assay results taken from patent US11359180B2, “Method for producing myocardial cells using synthetic peptide” (Toagosei Co., Ltd., priority 2015, dated 2022).

Assays:
[1] = test system: iPS cells of human origin (clone 201B7); experiment: Induction of myocardial cell differentiation: microscopic observation of beating cells; assay type: cell-based
From the text: Pluripotent stem cells were induced to myocardial cells (production of myocardial cells) using the myocardial cell differentiation-inducing synthetic peptide obtained in Example 1 (sample 1). Specifically, pluripotent stem cells were induced to myocardial cells (production of myocardial cells) by using the myocardial cell differentiation-inducing synthetic peptide obtained in Example 1 (sample 1) in place of activin A in the method for inducing the differentiation of pluripotent stem cells into hepatocytes. The method described in Non Patent Literature 3 was adopted for the method for inducing the differentiation of pluripotent stem cells into hepatocytes. iPS cells of human origin (clone designation: 201B7, source: Takahashi K et al., Cell, 131, 861-872 (2007)) were used for the test cells. These iPS cells were supplied by the Center for iPS Cell Research and Application of Kyoto University.
The iPS cells, which were the test cells, were seeded to 12-well plates coated with an extracellular matrix (Geltrex (registered trademark) in the present case). Using mTeSR1 (STEMCELL Technologies Inc.) for the culture medium, they were cultured (precultured) in a CO2 incubator under conditions of 37° C. and 5% CO2 until an appropriate cell density (here, a confluence of about at least 60% and not more than 70%) had been reached. Medium exchange was performed each day during this preculture.
The sample 1 obtained in Example 1 was then added to the culture medium and cultivation was carried out (main culture). Thus, the pluripotent stem cells were induced to myocardial cells (production of myocardial cells) by using the myocardial cell differentiation-inducing synthetic peptide obtained in Example 1 (sample 1) in place of the activin A in the method for inducing the differentiation of pluripotent stem cells into hepatocytes that is given in Non Patent Literature 3. The following were set up in the present example: a test section (referred to below as the activin A addition section) that used the same method as the method given in Non Patent Literature 3 for inducing the differentiation of pluripotent stem cells to hepatocytes using activin A; a test section (referred to below as the sample 1 addition section) that used the myocardial cell differentiation-inducing synthetic peptide of sample 1 in place of the activin A in the activin A addition section; and a control section to which neither the activin A nor the myocardial cell differentiation-inducing synthetic peptide was added. The specifics are given below. The culture conditions in this main culture are given schematically in FIG. 1.
(§1) First, the culture medium was exchanged to base medium 1 in the activin A addition section, the sample 1 addition section, and the control section. In the activin A addition section, activin A (R&D Systems, Inc., Cat. No. 338-AC-D50) was added to the culture vessel (i.e., to the base medium 1) in a quantity that provided an activin A concentration in the culture medium of 100 ng/mL. […]
as §1, with “After this cultivation for 2 days (i.e., the 2nd day after the start of the main culture), the” for “First, the”, “medium 2” for “medium 1”, “A” for “A (R&D Systems, Inc., Cat. No. 338-AC-D50)”, “medium 2)” for “medium 1)”

[2] = test system: iPS cells of human origin (clone 201B7); experiment: Expression of myocardial cell marker genes by fluorescent cytoimmunostaining; assay type: cell-based; conditions: sample 1 addition section, 16th day after start of main culture
Procedure: To check the state of expression of myocardial cell marker genes, cytoimmunostaining (fluorescent immunostaining) of proteins that are the gene products of myocardial marker genes was carried out on the cells in each of the test sections at the 16th day after the start of main culture. The expression of the following as myocardial marker genes was checked: myosin heavy chain (MHC), cardiac Troponin T (cTnT), tropomyosin (TM), and connexin 43 (Cx43).
First, the cells in each test section were subjected to a fixing treatment, a permeabilization treatment, and a blocking treatment. This fixing treatment, permeabilization treatment, and blocking treatment were carried out using a commercial kit (Image-iT Fixation/Permeabilization Kit, Life Technologies Corporation) in accordance with the manual provided with the kit.
Specifically, the culture medium was first removed from the culture vessel (12-well plate) for the cells in each test section on the 16th day after the start of the main culture (16th day after the addition of the myocardial cell differentiation-inducing synthetic peptide). The fixing treatment was performed by adding the fixative solution (Fixative Solution, contained 4 volume % formaldehyde in PBS (pH=7.3)) from the kit at 0.4 mL/well and holding at quiescence for 15 minutes at room temperature. This was followed by washing 3 times using the wash buffer (Wash Buffer, PBS, pH=7.4) from the kit at 0.5 mL/well.
A permeabilization treatment was then performed by adding the permeabilization solution (Permeabilization solution, contained 0.5 volume % Triton (registered trademark) X-100) from the kit at 0.5 mL/well and holding at quiescence for 15 minutes at room temperature. This was followed by washing three times with the wash buffer ([…]) from the kit.
After the cells in each well had been washed with PBS-T (PBS containing 0.25 volume % Triton (registered trademark) X-100), a blocking treatment was performed by adding the blocking solution (Blocking Solution, contained 3 weight/volume % (w/v %) BSA fraction V in DPBS (Dulbecco's PBS) (pH=7.4)) from the kit to each well and standing at quiescence overnight (about 18 hours) at 4° C.
After this blocking treatment, the primary antibody dilutions were added to each well followed by holding at quiescence for 2 hours at room temperature; the primary antibody dilutions were prepared by the dilution of the specified primary antibodies to a suitable antibody concentration using the blocking solution used in the blocking treatment.
The following primary antibodies were used as these primary antibodies: anti-myosin heavy chain antibody, anti-cardiac Troponin T antibody, anti-tropomyosin antibody, and anti-connexin 43 antibody. […]

Molecule	number of beating cells present (abundance ratio) compared to 9th day ([1]; sample 1 addition section, 8 μM, 10th day after start of main culture)	number of beating cells ([1]; sample 1 addition section, 8 μM, 17th day after start of main culture, 12-well plate)	number of beating cells (abundance ratio), average ([1]; sample 1 addition section, repeated tests, 17th day after start of main culture)	probability that at least 1 beating cell was present per 1 well ([1]; sample 1 addition section, tests independently repeated a plurality of times, 12-well plate)	expression of cardiac Troponin T in comparison to control section ([2]; FIG. 2)	expression of myosin heavy chain in comparison to control section ([2]; FIG. 2)	expression of connexin 43 in comparison to control section ([2]; FIG. 3)	expression of tropomyosin in comparison to control section ([2]; FIG. 3)	presence of beating cells ([1]; activin A addition section, 100 ng/mL, daily observation during main culture)
LLLLLLVGLTAPAGKKRTLRKNDRKKR [sample 1]	had increased	approximately 38 beating cells/well	about 40 per 1 well of the 12-well plate	at least 95%	substantially increased	substantially increased	substantially increased	substantially increased	–
activin A: peptide having approximately 140 amino acid residues (R&D Systems, Cat. No. 338-AC-D50), used in the hepatocyte differentiation-inducing method (protein, UniProt P08476 311-426, looked up, Inhibin beta A chain, peptide having approximately 140 amino acid residues (R&D Systems, Cat. No. 338-AC-D50), used in the hepatocyte differentiation-inducing method) Inhibin beta A chain: GLECDGKVNICCKKQFFVSFKDIGWNDWIIAPSGYHANYCEGECPSHIAGTSGSSLSFHSTVINHYRMRGHSPFANLKSCCVPTKLRPMSMLYYDDGQNIIKKDIQNMIVEECGCS	–	–	–	–	–	–	–	–	could not be confirmed
